Measured values: PMC6378217, “The lysyl oxidase like 2/3 enzymatic inhibitor, PXS‐5153A, reduces crosslinks and ameliorates fibrosis” (Journal of Cellular and Molecular Medicine, 2018)

Experiments:
[1] = target: Recombinant human semicarbazide sensitive amine oxidase (SSAO/VAP1) (Homo sapiens, UniProt Q16853); assay: SSAO/VAP1 enzymatic activity assay; format: biochemical
Description: (§1) The measurement of the enzymatic activity of all lysyl oxidase family members was based on the detection of hydrogen peroxide with an Amplex‐Red oxidation assay, as described in Zhou et al26 Recombinant human semicarbazide sensitive amine oxidase (SSAO/VAP1), diamine oxidase (DAO) and monoamine oxidases A and B (MAO‐A and MAO‐B) assays were performed as previously described.27 For detailed enzymatic procedures, see supporting information.
Recombinant human semicarbazide sensitive amine oxidase (SSAO/VAP1), diamine oxidase (DAO) and monoamine oxidases A and B (MAO-A and MAO-B) assays were performed as previously described.

Adrenergic α2A = Adrenergic α2A (Homo sapiens, UniProt P08913); assay: Eurofins Hit Profiling Screen; format: binding; details: 10 μmol/L
Recombinant dog LOXL2 = target: T1, Recombinant dog LOXL2 (Canis lupus familiaris, UniProt A0A8I3P9Y5); assay: Amplex-Red fluorometric enzymatic activity assay, recombinant dog LOXL2; format: biochemical; details: 30 minute pre-incubation; average of at least three experiments
T1 construct: made in house; host or cells: HEK-293 clones provided by Dr. Fernando Rodríguez Pascual
Description: as §1
(§2) The measurement of the enzymatic activity of all lysyl oxidase family members was based on the detection of hydrogen peroxide with an Amplex-Red oxidation assay, as described in Zhou et al.[1]; miniaturised in 384 well format, with the appropriate combination of substrate and assay buffer for each individual enzyme. After a 30 minute pre-incubation of the enzyme at 37 °C with the test compound (or with different incubation times for the time-dependency assay), one volume of reaction mixture containing 120 μM Amplex Red (AR) (Life Technologies), 1.5 U/mL horseradish peroxidase (HRP) (Sigma-Aldrich) and the specific substrate was added to each sample. The relative fluorescence units (RFU) were then measured every 2.5 minutes for 30 minutes at 37°C, excitation 565 nm and emission 590, on a BMG Clariostar Microplate Reader. […]

Potassium Channel hERG = Potassium Channel hERG (Homo sapiens, UniProt Q12809); assay: Eurofins Hit Profiling Screen; format: binding; details: 10 μmol/L
Nicotinic Acetylcholine = assay: Eurofins Hit Profiling Screen; format: binding; details: 10 μmol/L
GABAA, Muscimol, Central = assay: Eurofins Hit Profiling Screen; format: binding; details: 10 μmol/L
Recombinant human LOXL3 = target: T2, Recombinant human LOXL3 (Homo sapiens, UniProt P58215); assay: Amplex-Red fluorometric enzymatic activity assay, recombinant human LOXL3; format: biochemical; details: 30 minute pre-incubation; average of at least three experiments
T2 construct: purchased R&D Systems
Description: as §1, §2

Native human LOX = target: T3, Native human LOX (Homo sapiens, UniProt P28300); assay: Amplex-Red fluorometric enzymatic activity assay, native human LOX (IMR90 conditioned medium); format: biochemical; details: 30 minute pre-incubation; average of at least three experiments
T3 construct: collecting the 30-kDa LOX in the lower molecular weight portion; host or cells: IMR90 conditioned medium
Description: as §1, §2

Dopamine D2S = Dopamine D2S (Homo sapiens, UniProt P14416); assay: Eurofins Hit Profiling Screen; format: binding; details: 10 μmol/L
Adrenergic α1A = Adrenergic α1A (Rattus norvegicus, UniProt P43140); assay: Eurofins Hit Profiling Screen; format: binding; details: 10 μmol/L
Recombinant mouse LOXL2 = target: T4, Recombinant mouse LOXL2 (Mus musculus, UniProt P58022); assay: Amplex-Red fluorometric enzymatic activity assay, recombinant mouse LOXL2; format: biochemical; details: 30 minute pre-incubation; average of at least three experiments
T4 construct: purchased R&D Systems
Description: as §1, §2

[2] = target: Nicotinic Acetylcholine α1, Bungarotoxin (Homo sapiens, UniProt P02708+P07510+Q07001); assay: Eurofins Hit Profiling Screen; format: binding; details: 10 μmol/L
[3] = system: Calcium Channel L-Type, Dihydropyridine; assay: Eurofins Hit Profiling Screen; format: binding, rat; details: 10 μmol/L
Sigma σ1 = Sigma σ1 (Homo sapiens, UniProt Q99720); assay: Eurofins Hit Profiling Screen; format: binding; details: 10 μmol/L
Adrenergic β2 = Adrenergic β2 (Homo sapiens, UniProt P07550); assay: Eurofins Hit Profiling Screen; format: binding; details: 10 μmol/L
Adrenergic β2, sequence (P07550 whole entry): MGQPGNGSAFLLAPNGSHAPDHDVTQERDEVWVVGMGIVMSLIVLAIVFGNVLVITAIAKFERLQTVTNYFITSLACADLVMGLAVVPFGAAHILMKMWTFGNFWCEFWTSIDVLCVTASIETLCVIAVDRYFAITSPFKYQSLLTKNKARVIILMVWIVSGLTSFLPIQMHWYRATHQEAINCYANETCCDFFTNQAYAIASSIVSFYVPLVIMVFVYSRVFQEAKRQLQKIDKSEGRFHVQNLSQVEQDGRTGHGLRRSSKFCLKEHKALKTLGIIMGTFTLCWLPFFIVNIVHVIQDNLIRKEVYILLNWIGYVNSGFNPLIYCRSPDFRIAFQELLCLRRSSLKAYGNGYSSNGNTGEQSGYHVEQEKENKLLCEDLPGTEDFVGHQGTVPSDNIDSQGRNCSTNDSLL

T4 sequence (P58022 26-776): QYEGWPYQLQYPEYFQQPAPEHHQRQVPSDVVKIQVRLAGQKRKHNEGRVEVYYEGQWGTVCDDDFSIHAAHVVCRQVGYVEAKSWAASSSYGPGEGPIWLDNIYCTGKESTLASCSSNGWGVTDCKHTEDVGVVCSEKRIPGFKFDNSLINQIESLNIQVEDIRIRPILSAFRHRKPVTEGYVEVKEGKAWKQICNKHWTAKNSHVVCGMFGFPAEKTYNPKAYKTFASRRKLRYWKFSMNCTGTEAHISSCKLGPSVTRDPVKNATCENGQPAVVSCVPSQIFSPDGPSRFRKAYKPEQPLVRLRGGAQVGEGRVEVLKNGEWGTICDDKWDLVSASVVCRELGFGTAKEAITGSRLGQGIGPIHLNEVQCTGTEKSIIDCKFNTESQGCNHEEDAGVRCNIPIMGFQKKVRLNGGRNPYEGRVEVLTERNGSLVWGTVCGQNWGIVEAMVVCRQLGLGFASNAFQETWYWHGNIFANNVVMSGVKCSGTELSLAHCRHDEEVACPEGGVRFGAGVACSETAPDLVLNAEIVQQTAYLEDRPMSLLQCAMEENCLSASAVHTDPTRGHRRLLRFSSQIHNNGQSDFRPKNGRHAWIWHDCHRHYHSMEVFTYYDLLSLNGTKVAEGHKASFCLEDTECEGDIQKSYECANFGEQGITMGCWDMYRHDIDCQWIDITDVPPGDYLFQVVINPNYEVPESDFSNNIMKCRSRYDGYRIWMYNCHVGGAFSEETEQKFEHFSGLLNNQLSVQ
T3 sequence (P28300 169-417): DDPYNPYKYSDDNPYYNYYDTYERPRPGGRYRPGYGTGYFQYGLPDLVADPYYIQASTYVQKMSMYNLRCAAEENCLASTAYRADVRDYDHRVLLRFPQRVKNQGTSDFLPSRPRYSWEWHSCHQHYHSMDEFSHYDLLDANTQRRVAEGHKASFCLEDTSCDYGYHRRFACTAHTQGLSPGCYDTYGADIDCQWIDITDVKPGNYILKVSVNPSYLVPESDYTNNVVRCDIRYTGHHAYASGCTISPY
T2 sequence (P58215 26-753): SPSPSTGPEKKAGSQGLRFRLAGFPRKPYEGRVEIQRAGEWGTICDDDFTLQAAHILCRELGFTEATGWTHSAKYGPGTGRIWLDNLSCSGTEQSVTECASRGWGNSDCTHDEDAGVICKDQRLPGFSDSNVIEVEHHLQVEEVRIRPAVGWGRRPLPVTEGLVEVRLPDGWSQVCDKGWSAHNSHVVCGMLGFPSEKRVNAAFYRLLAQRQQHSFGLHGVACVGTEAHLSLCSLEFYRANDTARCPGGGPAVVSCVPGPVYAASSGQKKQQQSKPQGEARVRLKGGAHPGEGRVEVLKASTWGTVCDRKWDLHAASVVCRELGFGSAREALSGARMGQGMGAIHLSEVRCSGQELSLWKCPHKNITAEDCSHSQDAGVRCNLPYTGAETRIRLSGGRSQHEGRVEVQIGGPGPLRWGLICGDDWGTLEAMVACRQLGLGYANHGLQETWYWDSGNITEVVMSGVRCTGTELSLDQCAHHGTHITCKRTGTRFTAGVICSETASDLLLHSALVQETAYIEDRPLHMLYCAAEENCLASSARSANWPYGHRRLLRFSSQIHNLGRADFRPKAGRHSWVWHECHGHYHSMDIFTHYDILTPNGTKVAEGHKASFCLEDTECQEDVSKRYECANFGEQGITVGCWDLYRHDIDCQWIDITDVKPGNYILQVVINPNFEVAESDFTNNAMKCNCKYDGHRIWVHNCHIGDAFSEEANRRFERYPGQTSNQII
T1 sequence (A0A8I3P9Y5 1-777): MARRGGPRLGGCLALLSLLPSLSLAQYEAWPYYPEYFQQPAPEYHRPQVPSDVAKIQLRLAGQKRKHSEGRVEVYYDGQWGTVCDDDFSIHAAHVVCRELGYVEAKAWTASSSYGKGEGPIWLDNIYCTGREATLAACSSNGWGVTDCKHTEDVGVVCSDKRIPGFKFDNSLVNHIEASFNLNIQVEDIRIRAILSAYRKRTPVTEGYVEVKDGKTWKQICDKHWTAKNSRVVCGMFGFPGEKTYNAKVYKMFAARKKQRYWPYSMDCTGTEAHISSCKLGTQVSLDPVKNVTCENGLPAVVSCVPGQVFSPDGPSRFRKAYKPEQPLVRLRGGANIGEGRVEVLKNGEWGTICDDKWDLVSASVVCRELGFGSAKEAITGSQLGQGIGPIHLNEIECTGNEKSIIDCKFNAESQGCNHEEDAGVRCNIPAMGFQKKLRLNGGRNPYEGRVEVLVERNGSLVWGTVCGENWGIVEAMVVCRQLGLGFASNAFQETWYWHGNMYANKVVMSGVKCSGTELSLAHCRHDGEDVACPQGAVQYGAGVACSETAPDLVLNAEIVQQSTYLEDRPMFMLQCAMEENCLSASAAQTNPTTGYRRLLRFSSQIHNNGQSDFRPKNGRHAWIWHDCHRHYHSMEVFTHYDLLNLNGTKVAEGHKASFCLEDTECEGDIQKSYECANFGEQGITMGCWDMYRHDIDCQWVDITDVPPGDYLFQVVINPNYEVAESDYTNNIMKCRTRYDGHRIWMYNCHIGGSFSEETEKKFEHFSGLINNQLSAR
Adrenergic α2A, sequence (P08913 whole entry): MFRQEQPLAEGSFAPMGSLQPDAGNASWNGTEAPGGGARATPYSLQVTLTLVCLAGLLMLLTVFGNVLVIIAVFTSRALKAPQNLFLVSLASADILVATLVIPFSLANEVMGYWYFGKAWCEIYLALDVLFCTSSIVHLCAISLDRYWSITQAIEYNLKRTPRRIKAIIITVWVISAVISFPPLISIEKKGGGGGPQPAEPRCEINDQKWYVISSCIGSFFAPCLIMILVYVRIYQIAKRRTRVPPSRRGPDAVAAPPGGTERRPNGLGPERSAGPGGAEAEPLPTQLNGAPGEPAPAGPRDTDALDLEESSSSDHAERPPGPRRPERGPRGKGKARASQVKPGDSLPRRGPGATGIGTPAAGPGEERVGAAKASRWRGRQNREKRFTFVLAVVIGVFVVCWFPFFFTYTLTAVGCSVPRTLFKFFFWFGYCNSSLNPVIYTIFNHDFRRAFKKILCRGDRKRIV
Adrenergic α1A, sequence (P43140 whole entry): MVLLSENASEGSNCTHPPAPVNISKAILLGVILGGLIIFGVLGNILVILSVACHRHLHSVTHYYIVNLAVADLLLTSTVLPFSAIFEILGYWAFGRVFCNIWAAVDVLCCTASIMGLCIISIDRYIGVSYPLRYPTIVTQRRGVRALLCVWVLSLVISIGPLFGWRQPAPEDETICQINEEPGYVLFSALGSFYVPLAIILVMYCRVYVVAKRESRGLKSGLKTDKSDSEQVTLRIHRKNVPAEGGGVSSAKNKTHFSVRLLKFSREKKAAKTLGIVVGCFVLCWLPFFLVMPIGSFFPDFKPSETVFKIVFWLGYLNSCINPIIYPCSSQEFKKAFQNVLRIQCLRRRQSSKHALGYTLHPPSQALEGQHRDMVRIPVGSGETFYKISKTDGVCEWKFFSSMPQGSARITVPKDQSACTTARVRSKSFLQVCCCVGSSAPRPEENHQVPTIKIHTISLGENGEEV
Sigma σ1, sequence (Q99720 whole entry): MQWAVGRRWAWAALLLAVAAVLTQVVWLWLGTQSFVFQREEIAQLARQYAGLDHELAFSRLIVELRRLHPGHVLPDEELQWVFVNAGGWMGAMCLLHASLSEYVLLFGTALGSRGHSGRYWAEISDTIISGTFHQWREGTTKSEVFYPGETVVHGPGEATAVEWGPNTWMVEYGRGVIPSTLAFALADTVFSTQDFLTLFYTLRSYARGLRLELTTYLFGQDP
Dopamine D2S, sequence (P14416 1-414 isoform P14416-2): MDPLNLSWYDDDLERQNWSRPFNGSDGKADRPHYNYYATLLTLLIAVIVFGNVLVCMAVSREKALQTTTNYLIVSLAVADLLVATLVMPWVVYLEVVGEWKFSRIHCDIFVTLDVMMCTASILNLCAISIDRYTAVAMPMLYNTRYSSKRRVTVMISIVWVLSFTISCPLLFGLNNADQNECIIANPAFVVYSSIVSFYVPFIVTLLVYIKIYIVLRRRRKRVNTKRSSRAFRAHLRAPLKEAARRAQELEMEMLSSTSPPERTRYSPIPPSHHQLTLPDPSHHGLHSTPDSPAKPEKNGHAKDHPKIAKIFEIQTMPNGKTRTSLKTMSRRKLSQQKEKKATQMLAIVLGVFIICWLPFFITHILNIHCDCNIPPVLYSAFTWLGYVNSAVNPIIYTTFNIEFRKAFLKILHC

With Cc1c(-c2cccc(S(=O)(=O)N(C)C)c2)c2ncccc2n1C/C(F)=C/CN.Cl.Cl [PXS-5153A] the IC50 [1] was > 30 µM, the “% inhibition” value (Adrenergic α2A) was 97% and the IC50 (Recombinant dog LOXL2) was 0.009 µM. The “pIC50 ± SD” value (Recombinant dog LOXL2) was 8.04 ± 0.05, the “% inhibition” value (Potassium Channel hERG) was 47% and the “% inhibition” value (Nicotinic Acetylcholine) was 16%. The “% inhibition” value (GABAA, Muscimol, Central) was -7%, the IC50 (Recombinant human LOXL3) was 0.063 µM and the “pIC50 ± SD” value (Recombinant human LOXL3) was 7.2 ± 0.23. The IC50 (Native human LOX) was 1.79 µM, the “pIC50 ± SD” value (Native human LOX) was 5.7 ± 0.16 and the “% inhibition” value (Dopamine D2S) was 10%. For the same molecule, the “% inhibition” value (Adrenergic α1A) was 20%, the IC50 (Recombinant mouse LOXL2) was 0.021 µM and the “pIC50 ± SD” value (Recombinant mouse LOXL2) was 7.7 ± 0.2. The “% inhibition” value [2] was 2%, the “% inhibition” value [3] was 80% and the “% inhibition” value (Sigma σ1) was 8%. The “% inhibition” value (Adrenergic β2) was -5%.
